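Following 48 hours of exposure in 96-well plates, responses at five concentrations were used to interpolate endpoints linearly. Abbreviation: GI50, concentration required for 50% inhibition of growth.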 Calls of active or inactive are those of the source. Rule as the data show it: active = GI50 up to about 1.1 µM and inactive = higher.
What was measured:
Experiment in all cases: DTP human tumour cell line panel, 48 h
SNB-78 = test system: SNB-78
DMS-273 = test system: DMS-273
LXFL 529 = test system: LXFL 529
DU-145 = test system: DU-145
NCI/ADR-RES = test system: NCI/ADR-RES
DLD-1 = test system: DLD-1
HOP-18 = test system: HOP-18
XF498 = test system: XF498
RXF 631 = test system: RXF 631

| SMILES | GI50 (SNB-78) | GI50 (DMS-273) | GI50 (LXFL 529) | GI50 (DU-145) | GI50 (NCI/ADR-RES) | GI50 (DLD-1) | GI50 (HOP-18) | GI50 (XF498) | GI50 (RXF 631) |
| --- | --- | --- | --- | --- | --- | --- | --- | --- | --- |
| O=C1C=CC=C/C1=C1/SC(c2ccccc2)=C(O)N1c1ccccc1 | > 100 µM (inactive) | > 100 µM (inactive) | > 100 µM (inactive) | – | – | – | – | – | – |
| CO[C@H]1C=C[C@@]23c4cc5c(cc4CO[C@]2(O)CN(C)[C@H]3C1)OCO5 | – | – | – | > 100 µM (inactive) | > 100 µM (inactive) | – | – | – | – |
| COc1ccc(/C=N/n2c(C)nc3c(sc(=S)n3-c3ccccc3)c2=O)cc1 | – | – | 49 µM (inactive) | – | – | > 100 µM (inactive) | > 100 µM (inactive) | – | – |
| O=C1CC(CC(OCc2ccccc2)C(COCc2ccccc2)OCc2ccccc2)CC(=O)N1 (centres undefined) | – | – | – | 69.3 µM (inactive) | 24.7 µM (inactive) | – | – | – | – |
| O=C(N/N=C/C=C/c1ccccc1)[C@H](O)[C@@H](O)C(=O)N/N=C/C=C/c1ccccc1 | > 100 µM (inactive) | > 100 µM (inactive) | > 100 µM (inactive) | – | – | > 100 µM (inactive) | – | – | – |
| CCCCC1(N=[N+]=[N-])C(=O)c2cccc3c2N(CCC3)C1=O (centres undefined) | – | – | – | > 100 µM (inactive) | 31 µM (inactive) | – | – | – | – |
| O=C(NC1C/C(=N/O)c2c(Br)sc(Br)c21)C(F)(F)F (centres undefined) | – | – | – | 27.5 µM (inactive) | 19.3 µM (inactive) | – | – | – | – |
| CN(C)c1ccc(/C=C2/SC(=S)NC2=O)cc1 | – | – | – | > 100 µM (inactive) | > 100 µM (inactive) | – | – | – | – |
| CCN(CC)C(=O)c1cc(OC(C)C)ccc1-c1c(C)cc(OC(C)C)c(OC)c1OC | – | 41.6 µM (inactive) | – | – | – | 40.3 µM (inactive) | – | 25.8 µM (inactive) | – |
| COCCO [2-METHOXYETHANOL] | – | – | – | – | > 100 µM (inactive) | – | – | – | – |
| O=C(O)c1cc(-c2ccc3cc4c(cc3c2)OCO4)nc2ccccc12 | – | – | – | 63.4 µM (inactive) | 40.7 µM (inactive) | – | – | – | – |
| COc1cc2ccc(CC(N)=O)cc2cc1OC | > 100 µM (inactive) | > 100 µM (inactive) | > 100 µM (inactive) | – | – | – | > 100 µM (inactive) | > 100 µM (inactive) | > 100 µM (inactive) |
| COc1cc(C2C(=O)C(Cl)N2Nc2nc(C)cc(O)n2)cc(OC)c1OC (centres undefined) | 12.4 µM (inactive) | 10.4 µM (inactive) | 12.9 µM (inactive) | – | – | – | 2.67 µM (inactive) | – | – |
| CCC1(OC(=O)CN)C(=O)OCc2c1cc1n(c2=O)Cc2cc3ccccc3nc2-1 (centres undefined) | 0.738 µM (active) | 0.00471 µM (active) | 0.546 µM (active) | 0.01 µM (active) | 0.0118 µM (active) | 0.25 µM (active) | 0.0975 µM (active) | 0.147 µM (active) | – |
| CCCS(=O)(=O)O | – | – | – | > 100 µM (inactive) | > 100 µM (inactive) | – | – | – | – |
| COc1ccc(C(CC(=O)c2ccc(O)cc2)C(C(=O)c2ccc(O)cc2)C(c2ccc(OC)cc2)C2C(=O)NC(=S)NC2=O)cc1 (centres undefined) | – | – | – | 14.9 µM (inactive) | 17.9 µM (inactive) | – | – | – | – |
| COc1ccc(C2N(NC(=O)c3ccncc3)C(=O)CS2(=O)=O)cc1F (centres undefined) | > 100 µM (inactive) | > 100 µM (inactive) | > 100 µM (inactive) | – | – | > 100 µM (inactive) | > 100 µM (inactive) | > 100 µM (inactive) | > 100 µM (inactive) |

| SMILES | GI50 (SNB-78) | GI50 (DMS-273) | GI50 (LXFL 529) | GI50 (DU-145) | GI50 (NCI/ADR-RES) | GI50 (DLD-1) | GI50 (HOP-18) | GI50 (XF498) | GI50 (RXF 631) |
| --- | --- | --- | --- | --- | --- | --- | --- | --- | --- |
| NC1CCCCC1 | 292 µM (inactive) | 189 µM (inactive) | – | – | > 562 µM (inactive) | 200 µM (inactive) | < 0.0562 µM (active) | – | – |
| CCN1CCC(O)(/C=C/c2ccc(C)cc2)C(C(=O)/C=C/c2ccc(C)cc2)C1 (centres undefined) | – | – | – | 11.8 µM (inactive) | 2.61 µM (inactive) | – | – | – | – |
| CC(SC(=S)N1CCOCC1)C(=O)Nc1nnc(-c2ccc(Cl)cc2)o1 (centres undefined) | – | – | – | 79.6 µM (inactive) | 23.6 µM (inactive) | – | – | – | – |
| C/C(=C1\N=C(c2ccccc2)OC1=O)c1ccccc1 | – | – | – | > 100 µM (inactive) | – | – | – | – | – |
| Cc1ccc(CCC(=O)C(=O)O)s1 | > 100 µM (inactive) | > 100 µM (inactive) | > 100 µM (inactive) | – | – | – | > 100 µM (inactive) | > 100 µM (inactive) | > 100 µM (inactive) |
| Cc1[nH]c2ncn(/N=C/c3ccccc3O)c(=N)c2c1Cc1ccccc1 | – | – | – | > 100 µM (inactive) | 40.6 µM (inactive) | – | – | – | – |
| CC(C)OP(=O)(OC(C)C)c1nn(-c2ccc([N+](=O)[O-])cc2)c(=N)s1 | – | – | – | – | – | > 100 µM (inactive) | – | 89.5 µM (inactive) | – |
| CC1[C@@H]2CC=C3C4CCC5Cc6nc7c(nc6C[C@@]5(C)C4CC(=O)[C@]32CO[C@@]1(O)C(O)CC(C)(C)O)CC1CCC2C3=C[C@H]4O[C@@]5(O[C@@](C)(CO)C[C@@H]5O)C(C)[C@@]4(O)[C@]3(C)[C@@H](O)CC2[C@]1(C)C7 (some centres undefined) | 0.00146 µM (active) | < 0.00036 µM (active) | – | – | 0.612 µM (active) | 0.111 µM (active) | 0.269 µM (active) | 0.00242 µM (active) | – |
| C=CCNC(=O)N(CCC)CCCCC(NC(C)=O)C(=O)NCc1ccccc1 (centres undefined) | – | > 100 µM (inactive) | > 100 µM (inactive) | – | – | – | 72.1 µM (inactive) | > 100 µM (inactive) | – |
| C=CC(=O)NC(O)(C(=O)OCC)C(F)(F)F (centres undefined) | – | – | – | > 100 µM (inactive) | > 100 µM (inactive) | – | – | – | – |
| O=C1CCC(c2ccccc2)=NN1c1nsc2ccccc12 | > 100 µM (inactive) | 95.9 µM (inactive) | > 100 µM (inactive) | – | – | – | 19.6 µM (inactive) | – | – |
| Cc1ccc(NC(=S)NNC(=O)c2cc(-c3ccccc3)nc3ccccc23)cc1C | – | – | – | 22.4 µM (inactive) | 23 µM (inactive) | – | – | – | – |
| Cc1nnc(Nc2ccc(Cl)cc2)o1 | – | – | – | > 10 µM (inactive) | > 10 µM (inactive) | – | – | – | – |
| O=C(O)c1ccc(NS(=O)(=O)Cc2ccccc2)cc1 | – | – | – | > 100 µM (inactive) | > 100 µM (inactive) | – | – | – | – |
| CC1C(=O)N(c2ccccc2)NC12CCCc1ccccc12 (centres undefined) | – | – | – | > 100 µM (inactive) | > 100 µM (inactive) | – | – | – | – |
| CC(=O)[C@H]1CCC2[C@@H]3CC=C4C(O)C(OS(=O)(=O)O)CC[C@]4(C)C3CC[C@@]21C (some centres undefined) | > 100 µM (inactive) | > 100 µM (inactive) | – | – | > 100 µM (inactive) | > 100 µM (inactive) | > 100 µM (inactive) | – | – |

Source: ChEMBL document CHEMBL1201862, “PubChem BioAssay data set” (2004)
